# Laboratory results reported in patent publication US10238665B2, “Methods for treating fungal infections” (BRIGHAM YOUNG UNIVERSITY, priority 2014, dated 2019).
# Read-outs that look alike come from different tables or passages of the source.
# Columns and labels:
# [1] = test system: 100 Candida auris isolates; experiment: Antifungal effectiveness against Candida auris, MIC by CLSI M27-A3; assay type: cell-based
# Experimental: The antifungal effectiveness of CSA-131 was tested against 100 Candida auris isolates. The C. auris isolates were form all over the world and covered know C. auris clades. The selection included isolated known to have elevated MIC values against fluconazole, the echinocandins, and/or amphotericin B.
# Testing was performed according to the standards of the Clinical and Laboratory Standards Institute reference methodology M27-A3 (as of 2017). CSA-131 was dissolved in DMSO and diluted as described in M27-A3 to give a final DMSO concentration of <1%. Dilution plates were stored at −70° C. until used and were used within one week of being produced. All results were read visually after 24 hours of incubation at the lowest drug concentration at which there was a 50% decrease in growth by visual inspection. Quality control isolates C. parapsilosis ATCC22019 and C. krusei ATCC6258 were included on each day of testing although there are no standard QC values for these isolates against this compound. The MIC values for ATCC22019 and ATCC6258 remained within a tight range of 1-2 dilutions over the course of the study.
# [2] = test system: C. lusitaniae; experiment: Additional MIC experiments (CSA-13 and squalamine); assay type: cell-based, Candida lusitaniae
# Experimental: (§1) An antifungal agent is serially diluted two-fold in a desired medium to produce ten concentrations of the antifungal under investigation. The range used is chosen to include achievable serum levels of the drug. A standardized inoculum of either yeast cells or conidia is diluted in an equal volume of the desired medium. The yeast or conidia inoculum is incubated in the serially diluted drug wells at 35° C. Two wells are used as controls. The negative control well has only media and serves as a sterility control. The positive control well has the standardized inoculum with no drug, and is used to compare with the amount of growth in the drug wells.
# (§2) Testing is reported as an MIC, or minimum inhibitory concentration in μg/ml. This number represents the concentration at which the organism's growth in inhibited 50% from the control well for yeasts, and 80% for dermatophytes and certain filamentous fungi/antifungal combinations. Amphotericin B readings are taken at 100% inhibition.
# (§3) Fungal cultures were prepared as follows: • 1. Grow Candida sp. on a potato dextrose agar plate for 24 hrs. at 35° C. Grow Cryptococcus sp. for 48 hrs. • 2. Pick 5 colonies >1 mm in diameter to 5 ml of 0.85% sterile saline in a sterile 15 ml conical tube and vortex. • 3. Count the cells using a hemacytometer • 4. […]
# [3] = test system: C. glabrata; experiment: Additional MIC experiments (CSA-13 and squalamine); assay type: cell-based, Candida glabrata
# Experimental: as §1, §2, §3
# [4] = test system: C. tropicalis; experiment: Additional MIC experiments (CSA-13 and squalamine); assay type: cell-based, Candida tropicalis
# Experimental: as §1, §2, §3
# [5] = test system: Cryptococcus neofermans; experiment: Additional MIC experiments (CSA-13 and squalamine); assay type: cell-based, Cryptococcus neoformans
# Experimental: as §1, §2, §3
# [6] = test system: C. guilliermondii; experiment: Additional MIC experiments (CSA-13 and squalamine); assay type: cell-based, Candida guilliermondii
# Experimental: as §1, §2, §3
# [7] = test system: Candida albicans; experiment: MIC determination, broth microdilution (CLSI M27-A2); assay type: cell-based; settings: 35° C., 24 hrs, 50% growth inhibition
# Experimental: (§4) CSA 8 and CSA 13 were dissolved in dimethyl sulfoxide (DMSO) to create stock solutions. These solutions were applied to fungal isolates to determine the minimum inhibitory concentration (MIC) for each CSA.
# as §1, §2
# (§5) Fungal cultures were prepared as follows: • 1. Grow Candida sp. on a potato dextrose agar plate for 24 hrs. at 35° C. Grow Cryptococcus sp. for 48 hrs. • 2. […]
# [8] = test system: C. albicans (fluconazole resistant); experiment: as above; assay type: cell-based, Candida albicans; settings: 35° C., 24 hrs, 50% growth inhibition
# Experimental: as §4, §1, §2, §5
# [9] = test system: C. parapsilosis; experiment: as above; assay type: cell-based, Candida parapsilosis; settings: 35° C., 24 hrs, 50% growth inhibition
# Experimental: as §4, §1, §2, §5
# [10] = test system: C. krusei (fluconazole resistant); experiment: as above; assay type: cell-based, Candida krusei; settings: 35° C., 24 hrs, 50% growth inhibition
# Experimental: as §4, §1, §2, §5
# [11] = test system: C. krusei; experiment: as above; assay type: cell-based, Candida krusei; settings: 35° C., 24 hrs, 50% growth inhibition
# Experimental: as §4, §1, §2, §5
# [12] = test system: C. galabrata (fluconazole resistant); experiment: as above; assay type: cell-based, Candida glabrata; settings: 35° C., 24 hrs, 50% growth inhibition
# Experimental: as §4, §1, §2, §5
# [13] = test system: Aspergillus fumigatus; experiment: MIC determination, broth microdilution (CLSI M38-A); assay type: cell-based; settings: 35° C.
# Experimental: as §4, §1, §2
# (§6) Fungal cultures were prepared as follows: • 1. Grow Candida sp. on a potato dextrose agar plate for 24 hrs. at 35° C. Grow Cryptococcus sp. for 48 hrs. • 2. Pick 5 colonies >1 mm in diameter to 5 ml of 0.85% sterile saline in a sterile 15 ml conical tube and vortex. • 3. Count the cells using a hemacytometer • 4. Prepare a working suspension of yeast cells in RPMI-1640 to a final concentration of 2-5×10^3 CFU/ml (CFU=colony forming units or yeast cells) • 5. Prepare at least 2.5 ml of the working yeast suspension per drug per plate.
# (§7) Plates were prepared as follows: • 1. Aseptically dispense RPMI-1640 into a 25 ml reservoir. • 2. Using a multichannel pipette with 8 tips, dispense 100 μl of RPMI-1640 into the wells of a 96 well round bottom plate in columns 11 and 12. These will serve as growth controls and sterility controls, respectively. • 3. Remove excess liquid from the reservoir. • 4. Add the lowest concentration of antifungal from the set of final concentrations to the reservoir, and using the same set of tips, dispense 100 μl into the wells of column 10. • 5. Repeat steps 4-5 for each final concentration, working from lowest to highest concentration into columns 9 through 1, until all columns are filled. • 6. Using a new set of pipette tips and a new reservoir, add 100 μl of inoculum to each well except […]. • 7. Run each organism in duplicate (i.e. add isolate one to rows 1 and 2, isolate two to rows 3 and four, etc.) • 8. Incubate the plates at 35° C. for 24 hrs. for Candida sp. and 72 hrs. for Cryptococcus sp. • Similar procedures are followed for Aspergillus sp., Trichophyton sp., and Microsporum sp.
# (§8) Stock solutions of water-soluble and water insoluble antifungal agents were prepared according to standard laboratory procedures.
# (§9) Antifungal susceptibility testing gives a numerical result expressed in μg/ml indicating an in vitro MIC, or minimum inhibitory concentration, of the drug being investigated. The Clinical and Laboratory Standards Institute (CLSI) has provided guidelines for standardized microdilution broth testing (CLSI M27-A2 for yeasts and CLSI M38-A for filamentous molds), which is followed in the above procedure. The CLSI has also published guidelines for interpretation of MIC results based on clinical correlation studies for yeasts.
# [14] = test system: Aspergillus niger; experiment: as above; assay type: cell-based; settings: 35° C.
# Experimental: as §4, §1, §2, §6, §7, §8, §9
# [15] = test system: Cladosporium sp.; experiment: as above; assay type: cell-based; settings: 35° C.
# Experimental: as §4, §1, §2, §6, §7, §8, §9
# [16] = test system: Microsporum canis; experiment: as above; assay type: cell-based; settings: 35° C., 80% growth inhibition for dermatophytes
# Experimental: as §4, §1, §2, §6, §7, §8, §9
# [17] = test system: Penicillium sp.; experiment: as above; assay type: cell-based; settings: 35° C.
# Experimental: as §4, §1, §2, §6, §7, §8, §9
# [18] = test system: Trichophyton rubrum; experiment: as above; assay type: cell-based; settings: 35° C., 80% growth inhibition for dermatophytes
# Experimental: as §4, §1, §2, §6, §7, §8, §9
# [19] = test system: T. rubrum (terbinafine resistant); experiment: as above; assay type: cell-based, Trichophyton rubrum; settings: 35° C., 80% growth inhibition for dermatophytes
# Experimental: as §4, §1, §2, §5
# [20] = test system: T. mentagrophytes; experiment: as above; assay type: cell-based, Trichophyton mentagrophytes; settings: 35° C., 80% growth inhibition for dermatophytes
# Experimental: as §4, §1, §2, §5
# [21] = test system: T. tonsurans; experiment: as above; assay type: cell-based, Trichophyton tonsurans; settings: 35° C., 80% growth inhibition for dermatophytes
# Experimental: as §4, §1, §2, §5
# [22] = C. auris isolates with elevated echinocandin MICs, 7 isolates
smiles,measurement,setting,value
CCCCCCCCCCCCNCCC[C@@H](C)[C@H]1CC[C@H]2[C@@H]3[C@H](OCCCN)C[C@@H]4C[C@H](OCCCN)CC[C@]4(C)[C@H]3C[C@H](OCCCN)[C@]12C [CSA-131],MIC Range,"[1]; 100 C. auris isolates, 24 hours, 50% decrease in growth",0.5 to 1 µg/mL
same,MIC Range,"[1]; C. auris Clade 1, 47 isolates",0.5 to 1 µg/mL
same,MIC90,"[1]; C. auris Clade 2, 11 isolates",1 µg/mL
same,MIC Range,"[1]; C. auris Clade 2, 11 isolates",0.5 to 1 µg/mL
same,MIC90,"[1]; C. auris Clade 3, 39 isolates",1 µg/mL
same,MIC Range,"[1]; C. auris Clade 3, 39 isolates",0.5 to 1 µg/mL
same,MIC90,"[1]; C. auris Clade 4, 3 isolates",1 µg/mL
same,MIC Range,"[1]; C. auris Clade 4, 3 isolates",0.5 to 1 µg/mL
same,MIC90,[1]; [22],1 µg/mL
same,MIC Range,[1]; [22],0.5 to 1 µg/mL
same,MIC50,"[1]; Candidozyma auris, 24 h, 100 C. auris isolates, 24 hours, 50% decrease in growth, read-out: MIC50",1 µg/mL
same,MIC,"[1]; Candidozyma auris, 24 h, 100 C. auris isolates, 24 hours, 50% decrease in growth, read-out: MIC Mode",1 µg/mL
same,MIC50,"[1]; Candidozyma auris, C. auris Clade 1, 47 isolates, read-out: MIC50",1 µg/mL
same,MIC90,"[1]; Candidozyma auris, C. auris Clade 1, 47 isolates, read-out: MIC90",1 µg/mL
same,MIC,"[1]; Candidozyma auris, C. auris Clade 1, 47 isolates, read-out: MIC Mode",1 µg/mL
same,MIC50,"[1]; Candidozyma auris, C. auris Clade 2, 11 isolates, read-out: MIC50",1 µg/mL
same,MIC,"[1]; Candidozyma auris, C. auris Clade 2, 11 isolates, read-out: MIC Mode",1 µg/mL
same,MIC50,"[1]; Candidozyma auris, C. auris Clade 3, 39 isolates, read-out: MIC50",1 µg/mL
same,MIC,"[1]; Candidozyma auris, C. auris Clade 3, 39 isolates, read-out: MIC Mode",1 µg/mL
same,MIC50,"[1]; Candidozyma auris, C. auris Clade 4, 3 isolates, read-out: MIC50",0.5 µg/mL
same,MIC,"[1]; Candidozyma auris, C. auris Clade 4, 3 isolates, read-out: MIC Mode",0.5 µg/mL
same,MIC50,"[1]; Candidozyma auris, C. auris isolates with elevated echinocandin MICs, 7 isolates, read-out: MIC50",1 µg/mL
same,MIC,"[1]; Candidozyma auris, C. auris isolates with elevated echinocandin MICs, 7 isolates, read-out: MIC Mode",1 µg/mL
same,MIC50,"[1]; Candidozyma auris, fluconazole Resistant C. auris isolates, 69 isolates",1 µg/mL
same,MIC50,"[1]; Candidozyma auris, fluconazole Susceptible C. auris isolates, 30 isolates",0.5 µg/mL
same,MIC,"[1]; Candidozyma auris, read-out: MIC Mode, fluconazole Resistant C. auris isolates, 69 isolates",1 µg/mL
same,MIC90,"[1]; Candidozyma auris, 100 C. auris isolates, 24 hours, 50% decrease in growth, read-out: MIC90",1 µg/mL
same,activity against C. auris (in words),"[1]; collection of 100 C. auris isolates, 4 clades",showed activity against all C. auris among this collection
same,MIC90,[1]; {},1 µg/mL
same,MIC Range,[1]; {},0.5 to 1 µg/mL
"CC(C)[C@@H](CC[C@@H](C)[C@H]1CC[C@H]2[C@@H]3[C@H](O)C[C@H]4C[C@@H](NCCCNCCCCN)CC[C@]4(C)[C@H]3CC[C@]12C)OS(=O)(=O)O [Squalamine, squalamine, reference compound]",MIC,[2]; Clavispora lusitaniae,4 µg/mL
same,MIC,[3]; Nakaseomyces glabratus,2 µg/mL
same,MIC,[4]; Candida tropicalis,4 µg/mL
same,MIC,[5]; Cryptococcus,4 µg/mL
same,MIC,[6]; Meyerozyma guilliermondii,4 µg/mL
CCCCCCCCNCCC[C@@H](C)[C@H]1CC[C@H]2[C@@H]3[C@H](OCCCN)C[C@@H]4C[C@H](OCCCN)CC[C@]4(C)[C@H]3C[C@H](OCCCN)[C@]12C [CSA 13],MIC,[7],2 µg/mL
same,MIC,[8],2 µg/mL
same,MIC,[9],2 µg/mL
same,MIC,[10],1 µg/mL
same,MIC,[11],2 µg/mL
same,MIC,[12],2 µg/mL
same,MIC,[13],8 µg/mL
same,MIC,[14],2 µg/mL
same,MIC,[15],0.5 µg/mL
same,MIC,[16],2 µg/mL
same,MIC,[17],0.5 µg/mL
same,MIC,[18],4 µg/mL
same,MIC,[19],4 µg/mL
same,MIC,[20],2 µg/mL
same,MIC,[21],2 µg/mL
same,MIC,[2]; C. lusitaniae,0.5 µg/mL
same,MIC,[3]; C. glabrata,0.5 µg/mL
same,MIC,[4]; C. tropicalis,0.5 µg/mL
same,MIC,[5]; Cryptococcus neofermans,0.5 µg/mL
same,MIC,[6]; C. guilliermondii,0.5 µg/mL
